Results on two molecules are retold here after patent US20240360102A1, “PYRIMIDINE-4,6-DIAMINE DERIVATIVE, A PREPARATION METHOD THEREFOR, AND A PHARMACEUTICAL APPLICATION THEREOF” (Abbisko Therapeutics Co., Ltd., priority 2021, published 2024).

The target of one experiment is Ba/F3 EGFR-Del19-C797S (Homo sapiens, UniProt P00533, C797S, cells depend on it, form not given). In words: Cell proliferation study (CellTiter-Glo), Ba/F3 EGFR-Del19-C797S. Format: cell-based. Conditions: 72 hrs, CTG, read-out: Del19/C797S IC50. As to the method:
(§1) • DMEM medium (Gibco, 11965118) • RPMI1640 medium (Gibco, 11875119) • Fetal bovine serum (FBS) (GBICO, Cat #10099-141) • CellTiter-Glo® luminescent cell viability assay kit (Promega, Cat #G7572) • Black transparent flat-bottom 96-well plate (Corning®, Cat #3603)
(§2) • SpectraMax multi-label microplate reader MD, 2104-0010A; • Carbon dioxide incubator, Thermo Scientific 3100 series; • Biological safety cabinet, Thermo Scientific, 1300 series model A2; • Inverted microscope, Olympus, CKX41SF; • Siemens refrigerator, KK25E76TI.
(§3) • (1) Cells in the logarithmic growth phase were harvested and counted using a […]. The cell viability was determined by the trypan blue dye exclusion method to ensure cell viability above 90%. • (2) The cell concentration was adjusted to reach a desired final density; 90 μL of cell suspension was added to a 96-well plate. • (3) The cells were incubated overnight in the 96-well plate at 37° C., 5% CO2 and with 95% humidity.
(§4) • (1) 10 μL of PBS was added to each well of the TO plate containing the cells, • (2) The CTG reagent was thawed and the cell plate was equilibrated to room temperature for 30 min. • (3) An equal volume of CTG solution was added to each well. • (4) The cells were lysed by shaking on an orbital shaker for 5 min. • (5) The cell plate was left to stand at room temperature for 20 min to stabilize the fluorescence signal. • (6) The fluorescence signal values of TO were read.
(§5) • (1) According to the compound information table, a corresponding volume of DMSO was added to the corresponding compound powder to prepare a 10 mM stock solution. • (2) A 1000-fold, 3.16-fold-diluted compound solution was prepared. • (3) The 1000× diluted compound solution was diluted 100-fold with PBS to prepare a 10-fold compound solution with a maximum concentration of 10 μM, including 9 concentrations, with 3.16-fold dilution, and 10 μL of the medicament solution was added to each well of the 96-well plate to seed the cells. Triplicate wells were set for each compound concentration, with a final concentration of DMSO being 0.1%. • (4) The cells were placed in the 96-well plate containing the medicament at 37° C., 5% CO2 and with 95% humidity, and cultured for 72 hrs before CTG analysis,
(§6) • (1) The CTG reagent was thawed and the cell plate was equilibrated to room temperature for 30 min. • (2) An equal volume of CTG solution was added to each well. • (3) The cells were lysed by shaking on an orbital shaker for 5 min. • (4) The cell plate was left to stand at room temperature for 20 min to stabilize the fluorescence signal. • (5) The fluorescence values were read.
(§7) Data were analyzed using GraphPad Prism 7.0 software and fitted data were regressed using non-linear S-curves to obtain dose-response curves from which IC50 values (in nM) were calculated.
Background: Cellular ATP, detected with luciferase, serves as a proxy for viable cell number.

In a further experiment the target is Ba/F3 EGFR-L858R-C797S (Homo sapiens, UniProt P00533, C797S/L858R, cells depend on it). In words: Cell proliferation study (CellTiter-Glo), Ba/F3 EGFR-L858R-C797S. It counts as cell-based. Conditions: 72 hrs, CTG, read-out: L858R/C797S IC50. As to the method:
as §1, §2, §3, §4, §5, §6, §7

Another experiment concerns A431. In words: Cell proliferation study (CellTiter-Glo), A431 WT. Particulars: Homo sapiens, A-431; A431 cells, 72 hrs, CTG. Format: cell-based. As to the method: as §1, §2, §3, §4, §5, §6, §7
The next experiment addresses Ba/F3 EGFR-L858R (Homo sapiens, UniProt P00533, L858R, cells depend on it). Nature of the experiment: Cell proliferation study (CellTiter-Glo), Ba/F3 EGFR-L858R. Particulars: 72 hrs, CTG, read-out: L858R IC50. Format: cell-based. As to the method:
as §1, §2, §3, §4
(§8) • (1) According to the compound information table, a corresponding volume of DMSO was added to the corresponding compound powder to prepare a 10 mM stock solution. • (2) A 1000-fold, 3.16-fold-diluted compound solution was prepared. • (3) The 1000× diluted compound solution was diluted 100-fold with PBS to prepare a 10-fold compound solution with a maximum concentration of 10 μM, including 9 concentrations, with 3.16-fold dilution, and 10 μL of the medicament solution was added to each well of the 96-well plate to seed the cells. […]
as §6, §7

The target in the next experiment is Ba/F3 EGFR-Del19 (Homo sapiens, UniProt P00533, cells depend on it, form not given). Nature of the experiment: Cell proliferation study (CellTiter-Glo), Ba/F3 EGFR-Del19. Particulars: 72 hrs, CTG, read-out: Del19 IC50. It counts as cell-based. As to the method:
as §1, §2, §3, §4, §8, §6, §7

Experiment [1] has as its system EGFR-Mutated Advanced Non-Small-Cell Lung Cancer. Particulars: patients, untreated EGFR-mutated advanced NSCLC; cited from earlier work.

Chain of Ba/F3 EGFR-Del19-C797S (P00533 with tags, fused parts or gaps DEL746-750/C797S, form open): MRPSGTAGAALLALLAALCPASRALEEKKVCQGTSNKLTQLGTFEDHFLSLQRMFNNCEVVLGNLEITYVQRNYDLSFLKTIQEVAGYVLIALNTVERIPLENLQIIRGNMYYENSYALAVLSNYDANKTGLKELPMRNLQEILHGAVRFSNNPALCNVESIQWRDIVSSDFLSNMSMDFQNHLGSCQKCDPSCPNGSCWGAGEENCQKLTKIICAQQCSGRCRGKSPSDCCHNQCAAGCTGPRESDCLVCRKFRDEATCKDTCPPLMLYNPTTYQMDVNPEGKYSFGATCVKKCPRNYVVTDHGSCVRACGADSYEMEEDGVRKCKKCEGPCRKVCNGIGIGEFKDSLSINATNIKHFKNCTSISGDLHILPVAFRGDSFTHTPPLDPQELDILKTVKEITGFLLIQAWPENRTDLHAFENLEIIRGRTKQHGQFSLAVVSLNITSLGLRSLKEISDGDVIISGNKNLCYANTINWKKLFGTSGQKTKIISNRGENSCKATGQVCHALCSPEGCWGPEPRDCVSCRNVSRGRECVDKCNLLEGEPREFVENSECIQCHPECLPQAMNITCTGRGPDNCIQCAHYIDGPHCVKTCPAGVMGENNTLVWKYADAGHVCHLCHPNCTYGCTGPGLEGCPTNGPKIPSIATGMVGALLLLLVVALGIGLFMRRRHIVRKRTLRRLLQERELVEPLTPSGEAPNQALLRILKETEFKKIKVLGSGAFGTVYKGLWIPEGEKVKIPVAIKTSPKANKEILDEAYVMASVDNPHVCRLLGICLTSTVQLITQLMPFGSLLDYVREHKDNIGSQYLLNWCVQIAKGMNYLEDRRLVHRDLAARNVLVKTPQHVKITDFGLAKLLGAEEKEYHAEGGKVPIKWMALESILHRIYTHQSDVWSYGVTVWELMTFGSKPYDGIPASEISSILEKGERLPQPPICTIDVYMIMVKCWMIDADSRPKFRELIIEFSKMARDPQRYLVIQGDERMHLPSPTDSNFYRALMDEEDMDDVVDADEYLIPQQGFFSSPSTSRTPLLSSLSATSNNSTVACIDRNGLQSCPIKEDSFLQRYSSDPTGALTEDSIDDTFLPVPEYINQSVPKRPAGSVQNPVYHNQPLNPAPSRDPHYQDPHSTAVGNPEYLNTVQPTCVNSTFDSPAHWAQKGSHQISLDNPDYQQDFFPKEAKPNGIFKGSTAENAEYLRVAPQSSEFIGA
Chain of Ba/F3 EGFR-Del19 (P00533 with tags, fused parts or gaps DEL746-750): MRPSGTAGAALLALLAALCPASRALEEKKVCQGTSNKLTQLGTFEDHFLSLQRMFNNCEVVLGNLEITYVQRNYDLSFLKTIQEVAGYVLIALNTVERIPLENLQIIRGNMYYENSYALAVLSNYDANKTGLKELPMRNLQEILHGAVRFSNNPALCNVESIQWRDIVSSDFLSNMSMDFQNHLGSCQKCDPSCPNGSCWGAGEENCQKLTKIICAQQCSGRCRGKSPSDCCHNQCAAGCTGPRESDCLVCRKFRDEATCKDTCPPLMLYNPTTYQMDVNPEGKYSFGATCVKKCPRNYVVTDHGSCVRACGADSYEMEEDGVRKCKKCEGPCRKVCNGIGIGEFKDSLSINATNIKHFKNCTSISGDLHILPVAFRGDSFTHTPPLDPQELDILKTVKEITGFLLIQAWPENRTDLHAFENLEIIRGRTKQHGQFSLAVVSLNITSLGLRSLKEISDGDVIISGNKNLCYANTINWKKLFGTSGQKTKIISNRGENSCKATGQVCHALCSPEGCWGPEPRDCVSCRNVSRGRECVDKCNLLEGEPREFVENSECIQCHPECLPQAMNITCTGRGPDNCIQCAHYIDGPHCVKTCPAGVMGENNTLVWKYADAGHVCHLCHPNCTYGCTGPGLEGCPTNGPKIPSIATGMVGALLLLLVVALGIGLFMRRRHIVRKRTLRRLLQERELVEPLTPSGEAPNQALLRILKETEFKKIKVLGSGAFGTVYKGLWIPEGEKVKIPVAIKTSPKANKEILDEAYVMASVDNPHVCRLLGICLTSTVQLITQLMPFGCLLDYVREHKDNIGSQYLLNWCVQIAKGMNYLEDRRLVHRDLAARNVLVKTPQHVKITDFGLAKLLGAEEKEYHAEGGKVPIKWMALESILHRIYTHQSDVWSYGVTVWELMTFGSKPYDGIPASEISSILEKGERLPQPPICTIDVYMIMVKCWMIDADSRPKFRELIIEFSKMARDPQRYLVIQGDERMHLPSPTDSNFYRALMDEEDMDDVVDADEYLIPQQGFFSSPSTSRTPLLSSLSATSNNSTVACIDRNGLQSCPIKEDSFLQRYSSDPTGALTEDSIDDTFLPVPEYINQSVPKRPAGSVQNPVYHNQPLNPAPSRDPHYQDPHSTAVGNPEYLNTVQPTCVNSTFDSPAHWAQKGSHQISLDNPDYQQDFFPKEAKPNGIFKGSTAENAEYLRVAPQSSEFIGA
Chain of Ba/F3 EGFR-L858R-C797S (P00533 whole entry C797S/L858R): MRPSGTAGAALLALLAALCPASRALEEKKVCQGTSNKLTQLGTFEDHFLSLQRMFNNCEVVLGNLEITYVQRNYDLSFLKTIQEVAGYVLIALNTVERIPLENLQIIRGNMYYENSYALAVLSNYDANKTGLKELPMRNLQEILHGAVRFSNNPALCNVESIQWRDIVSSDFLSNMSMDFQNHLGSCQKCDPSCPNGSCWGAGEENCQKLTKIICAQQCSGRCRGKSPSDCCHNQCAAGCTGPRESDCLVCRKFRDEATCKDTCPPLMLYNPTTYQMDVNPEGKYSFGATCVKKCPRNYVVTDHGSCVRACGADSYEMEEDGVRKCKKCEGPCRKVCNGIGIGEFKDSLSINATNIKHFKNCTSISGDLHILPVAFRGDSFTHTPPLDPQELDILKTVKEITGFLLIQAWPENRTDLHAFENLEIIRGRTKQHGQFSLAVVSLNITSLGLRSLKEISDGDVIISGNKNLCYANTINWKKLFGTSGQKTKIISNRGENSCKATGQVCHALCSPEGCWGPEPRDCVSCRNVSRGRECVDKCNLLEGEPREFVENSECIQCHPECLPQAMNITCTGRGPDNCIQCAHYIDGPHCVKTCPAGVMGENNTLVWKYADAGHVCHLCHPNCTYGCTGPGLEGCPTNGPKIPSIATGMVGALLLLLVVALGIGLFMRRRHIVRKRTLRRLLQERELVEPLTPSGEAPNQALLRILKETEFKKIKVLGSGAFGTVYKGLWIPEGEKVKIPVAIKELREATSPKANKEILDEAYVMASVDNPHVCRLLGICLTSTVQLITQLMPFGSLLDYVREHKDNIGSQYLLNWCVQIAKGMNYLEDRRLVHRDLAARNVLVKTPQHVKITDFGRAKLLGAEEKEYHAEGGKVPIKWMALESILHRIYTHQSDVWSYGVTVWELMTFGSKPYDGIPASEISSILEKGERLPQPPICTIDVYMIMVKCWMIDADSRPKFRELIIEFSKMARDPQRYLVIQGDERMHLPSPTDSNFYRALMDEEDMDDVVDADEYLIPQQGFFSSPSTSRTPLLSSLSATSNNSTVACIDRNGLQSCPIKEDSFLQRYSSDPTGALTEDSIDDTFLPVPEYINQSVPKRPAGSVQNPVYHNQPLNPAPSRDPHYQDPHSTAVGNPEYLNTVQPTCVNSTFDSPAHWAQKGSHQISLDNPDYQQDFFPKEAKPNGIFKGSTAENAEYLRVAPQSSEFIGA
Chain of Ba/F3 EGFR-L858R (P00533 whole entry L858R): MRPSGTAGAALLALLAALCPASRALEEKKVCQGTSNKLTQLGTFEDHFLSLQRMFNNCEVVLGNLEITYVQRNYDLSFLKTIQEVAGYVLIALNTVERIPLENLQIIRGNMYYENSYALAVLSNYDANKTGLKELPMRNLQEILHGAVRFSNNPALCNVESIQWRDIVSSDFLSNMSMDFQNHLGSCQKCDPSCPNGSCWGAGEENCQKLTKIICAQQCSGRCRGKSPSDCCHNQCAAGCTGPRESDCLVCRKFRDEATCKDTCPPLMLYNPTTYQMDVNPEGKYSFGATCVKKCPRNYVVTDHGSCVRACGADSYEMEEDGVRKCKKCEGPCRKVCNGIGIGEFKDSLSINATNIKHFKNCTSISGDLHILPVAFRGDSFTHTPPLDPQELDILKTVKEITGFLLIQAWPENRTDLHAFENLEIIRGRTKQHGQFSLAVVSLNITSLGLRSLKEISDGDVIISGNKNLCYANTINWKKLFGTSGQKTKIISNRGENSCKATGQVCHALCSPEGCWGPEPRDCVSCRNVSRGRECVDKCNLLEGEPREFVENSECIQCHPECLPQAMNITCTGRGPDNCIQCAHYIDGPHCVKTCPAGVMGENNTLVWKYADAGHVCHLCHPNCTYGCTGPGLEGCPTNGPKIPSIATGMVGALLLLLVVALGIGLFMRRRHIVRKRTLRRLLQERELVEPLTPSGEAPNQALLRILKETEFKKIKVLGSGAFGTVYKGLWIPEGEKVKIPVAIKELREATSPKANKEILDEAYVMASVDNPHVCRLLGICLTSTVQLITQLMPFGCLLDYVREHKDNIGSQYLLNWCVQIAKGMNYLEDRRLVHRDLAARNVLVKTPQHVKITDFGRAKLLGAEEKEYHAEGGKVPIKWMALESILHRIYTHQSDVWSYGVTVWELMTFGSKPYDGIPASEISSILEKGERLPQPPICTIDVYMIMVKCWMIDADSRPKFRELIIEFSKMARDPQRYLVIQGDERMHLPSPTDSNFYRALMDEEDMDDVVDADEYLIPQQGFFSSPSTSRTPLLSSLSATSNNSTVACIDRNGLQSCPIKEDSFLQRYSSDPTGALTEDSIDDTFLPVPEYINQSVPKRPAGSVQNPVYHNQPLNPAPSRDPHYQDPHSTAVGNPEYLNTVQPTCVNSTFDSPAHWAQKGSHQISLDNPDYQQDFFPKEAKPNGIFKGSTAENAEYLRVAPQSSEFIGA

For the molecule `CCN1CCN(C2CCN(c3cc(OC)c(Nc4cc(Nc5ccnc(-c6ccccc6F)c5)ncn4)cc3C)CC2)CC1` [Example 16, N^4-(4-(4-(4-ethylpiperazin-1-yl)piperidin-1-yl)-2-methoxy-5-methylphenyl)-N^6-(2-(2-fluorophenyl)pyridin-4-yl)pyramidine-4,6-diamine], the GI50 came out at 12.9 nM on Ba/F3 EGFR-Del19-C797S, 11.3 nM at Ba/F3 EGFR-L858R-C797S, 3.9 nM on Ba/F3 EGFR-L858R and 3.1 nM on Ba/F3 EGFR-Del19. Besides, the IC50 (usually the midpoint of a concentration-inhibition curve) with A431 amounted to 177 nM.
For `C=CC(=O)Nc1cc(Nc2nccc(-c3cn(C)c4ccccc34)n2)c(OC)cc1N(C)CCN(C)C` [osimertinib], in experiment [1], the overall survival is recorded as 38.6 months and the progression-free survival is listed as 18.9 months.
